Each structure is given as a SMILES string.

Data on one compound can be found in EP2832347B1, “Method for identifying patchouli odorant materials” (Takasago International Corporation, priority 2013, dated 2015).

For test [1], the system named is 65 human olfactory receptors. The test is described as follows: Screening against the set of 65 human olfactory receptors (CRE-luciferase). To be noted: 10 µM; including negative control receptor hTAS2R16. It is filed as cell-based. How it is done: The experiments were performed using a HEK293 cell line (deposited at the ATCC under accession n° CRL-1573) stably expressing the Gαolf G-protein and the cyclic nucleotide gated ion channel A2 subunit (CNGA2) (herein called HEKOlf). As described by Shirokova et al., 2005, the human Gαolf cDNA was cloned into the mammalian expression vector pPuro and cDNA for the bovine cyclic nucleotide gated ion channel A2 (CNGA2) subunit was cloned into the mammalian expression vector pcDNA3. Both constructs were transfected using Lipofectamine2000 (Invitrogen) following the manufacturer's instructions. Cellular clones stably expressing Gαolf and CNGA2 were obtained by antibiotic selection with 0.5µg/ml Puromycin and 200µg/ml Geneticin. […]
(§1) In this assay, the interaction of an odorant with its cognate olfactory receptor leads to the activation of the human Gαolf G-protein. […] The cells were then transferred into an automated fluorometric imaging plate reader (FLIPR^TETRA, Molecular Devices). […]
(§2) The data obtained from different well replicates were analyzed with Excel, ScreenWorks, and SigmaPlot 10. […] The mean and standard deviation of the resulting fold of change values were calculated and plotted in vertical bar charts or concentration-response curves fitted by the SigmaPlot 10 software. […]

The target in the next test is T1, OR7D4 (Homo sapiens, UniProt Q8NG98).
T1 construct: expressed in transfected cells; host or cells: HEKOlf (HEK293 stably expressing human Galpha-olf and bovine CNGA2)
T1 sequence (Q8NG98 1-312): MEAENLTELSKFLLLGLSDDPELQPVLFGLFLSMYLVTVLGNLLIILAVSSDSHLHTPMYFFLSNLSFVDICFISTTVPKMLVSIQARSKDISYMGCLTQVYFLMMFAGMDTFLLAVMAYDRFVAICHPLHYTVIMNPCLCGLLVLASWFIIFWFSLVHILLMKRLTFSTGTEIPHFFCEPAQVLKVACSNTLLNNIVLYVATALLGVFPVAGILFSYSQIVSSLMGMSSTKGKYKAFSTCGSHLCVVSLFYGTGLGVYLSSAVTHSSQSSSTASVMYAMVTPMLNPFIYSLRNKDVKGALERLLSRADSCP
Kind of test: CRE-luciferase reporter assay, positive control receptor OR7D4. The conditions noted are these: 10 µM. It is filed as cell-based. How it is done: The experiments were performed using a HEK293 cell line (deposited at the ATCC under accession n° CRL-1573) stably expressing the Gαolf G-protein and the cyclic nucleotide gated ion channel A2 subunit (CNGA2) (herein called HEKOlf). As described by Shirokova et al., 2005, the human Gαolf cDNA was cloned into the mammalian expression vector pPuro and cDNA for the bovine cyclic nucleotide gated ion channel A2 (CNGA2) subunit was cloned into the mammalian expression vector pcDNA3. Both constructs were transfected using Lipofectamine2000 (Invitrogen) following the manufacturer's instructions. Cellular clones stably expressing Gαolf and CNGA2 were obtained by antibiotic selection with 0.5µg/ml Puromycin and 200µg/ml Geneticin.
All transient transfections were performed with Lipofectamine 2000 (Invitrogen) according to the manufacturer's protocol. […]
as §1, §2

On to `C[C@]12CCC(=O)C[C@@H]1CC[C@@H]1[C@@H]2CC[C@]2(C)C=CC[C@@H]12` [androstenone], for which, in test [1], the “response of the 65 olfactory receptors tested” value is given as “did not respond”. For the same compound, the “activation of OR7D4” value on OR7D4 is given as “robustly activated”.
